Measurements: article PMC7616682 (Journal of biological inorganic chemistry : JBIC : a …, 2024)
≈ marks a conversion by molar mass, not a printed value. Like-named read-outs stand apart in the source and are kept apart here.

Columns and labels:
[1] = tested on: Escherichia coli K12 ATCC 10798; assay: Rapid screen broth microdilution assay; format: cell-based; conditions: rapid screen without replicates, 24 h, read-out: MIC E. coli (Gram negative)
Description: (§1) Antibacterial activity assay
(§2) Rapid screen broth microdilution assay
(§3) 5 × 125 mL Erlenmeyer flasks, each filled with 12.5 mL Mueller Hinton broth II (MHBII), were inoculated with Klebsiella pneumoniae ATCC 13883, Acinetobacter baumanii ATCC 17978, Psuedomonas aeruginosa ATCC BAA-47, Staphylococcus aureus […]
(§4) with 12.5 mL BHI broth was inoculated with Enterococcus faecium ATCC 19434. The cultures were incubated at 37 °C with shaking at 180 rpm for 16 h. The suspensions were diluted 100-fold with the requisite broth (E. faecium: 4-fold) and the resultant suspensions incubated for a further 3 h at 37 °C with shaking. […]
(§5) of 0.8–1.2 after 3 h. Stock solutions of the title compounds were prepared in the requisite broth from 100 mM stocks in DMSO with the exceptions of carbenicillin, which was from a 100 mM stock in water and ciprofloxacin from a 10 mM stock in DMSO.
(§6) 6 × 96 well plates were primed with a concentration gradient of the analytes from 200 to 3.13 µM, carbenicillin from 200 to 3.13 µM and ciprofloxacin from 10 to 0.16 µM. The cells were diluted 100-fold to an OD600 of 0.01. All plates were then inoculated with 50 μL per well bacterial culture in the requisite broth to 100 μL per well. Plates were then incubated at 37 °C for 24 h before reading OD600 on a BMG Clariostar platereader. […]

[2] = tested on: S. aureus NTCC 12973; assay: MIC broth microdilution assay; format: cell-based, Staphylococcus aureus; conditions: 24 h, read-out: MIC S. aureus (Gram positive)
Description: (§7) Antibacterial activity assay […]
(§8) MIC broth microdilution assay
(§9) 3 × 125 mL Erlenmeyer flasks, each filled with 12.5 mL MHBII, were inoculated with three different colonies of S. aureus NTCC 12973. 3 × 125 mL Erlenmeyer flasks, each filled with 12.5 mL BHI broth, were inoculated with three different colonies of E. faecium ATCC 19434. The cultures were incubated at 37 °C with shaking at 180 rpm for 16 h.
(§10) OD600 of ~2.5. The suspensions of S. aureus cultures were diluted 100-fold with MHBII while the E. faecium cultures were diluted 4-fold. The resultant suspensions were incubated for a further 3 h at 37 °C with shaking. […]
(§11) after 3 h. Stock solutions of the title compounds were prepared in the requisite broth from 100 mM stocks in DMSO with the exception of carbenicillin, which was from a 100 mM stock in water and vancomycin from a 10 mM stock in DMSO. 15 × 96 well plates were primed with concentration gradients of the analytes and carbenicillin as shown in Figure S60 for S. aureus. 15 × 96 well plates were primed with the concentration […]
(§12) μL per well of the relevant bacterial culture in the requisite broth to 100 μL per well.
Plates were then incubated at 37 °C for 24 h before reading OD600 on a BMG Clariostar […]
Figure S50: Dose response profiles of the title compounds against S. aureus.
(1 picture or pasted object on this page, not shown here)

[3] = LogP by shake-flask method (n-octanol/phosphate buffer)
Description: using the "shake-flask" method.[6],[7] In short, phosphate buffer (50 mM, pH 7.4) was saturated with n-octanol by shaking a 1:1 mixture of both solution on a laboratory shaker for 72 h, after which the phases were separated. Stock solutions of each complex were then prepared in dimethylsulfoxide at a concentration of 10 mM. […]
solution with a concentration of 100 µM. From this solution, 1000 µL were transferred into an Eppendorf tube and mixed with 1000 µL of n-octanol. After shaking for 15 min and centrifugation (5 min, 6000 rpm), the two phases were carefully separated, and the contact layer discarded. Then, the absorbance of each phase was recorded with an Agilent 8453 UV/Vis spectrometer.
2 mL solution with a concentration of 100 µM. From this solution, 1000 µL were transferred into an Eppendorf tube and mixed with 1000 µL phosphate buffer. After shaking for 15 min and centrifugation (5 min, 6000 rpm), the phases were carefully separated, and the contact layer discarded. Then, the absorbance of each phase was recorded with an Agilent 8453 UV/Vis spectrometer.

[4] = tested on: Acinetobacter baumanii ATCC 17978; assay: Rapid screen broth microdilution assay; format: cell-based, Acinetobacter baumannii; conditions: rapid screen without replicates, 24 h, read-out: MIC A. baumannii (Gram negative)
Description: as §1, §2, §3, §4, §5, §6

[5] = tested on: Klebsiella pneumoniae ATCC 13883; assay: Rapid screen broth microdilution assay; format: cell-based; conditions: rapid screen without replicates, 24 h, read-out: MIC K. pnuemoniae (Gram negative)
Description: as §1, §2, §3, §4, §5, §6

[6] = tested on: Psuedomonas aeruginosa ATCC BAA-47; assay: Rapid screen broth microdilution assay; format: cell-based, Pseudomonas aeruginosa; conditions: rapid screen without replicates, 24 h, read-out: MIC P. aeruginosa (Gram negative)
Description: as §1, §2, §3, §4, §5, §6

[7] = tested on: E. faecium ATCC 19434; assay: MIC broth microdilution assay; format: cell-based, Enterococcus faecium; conditions: three colonies, 24 h; for MIC: read-out: MIC E. faecium (Gram positive)
Description: as §7, §8, §9, §10, §11, §12

[8] = tested on: BEAS2B (non-cancer lung) cells; assay: Cell viability (DAPI nuclei count); format: cell-based, human; conditions: 48 h
Description: (§13) To determine the relative viability, after incubation cells were fixed and stained with DAPI and the number of nuclei per well determined using a CeligoTM Image Cytometer (Figure S52 to S60). […] page 43: Cell viability studies Compound cytotoxicity was tested simultaneously on five representative cell lines […] All cells were cultured in DMEM Glutamax without pyruvate with 10% fetal bovine serum and 1% penicillin/streptomycin (Gibco). Cells were incubated with the compound for 24 or 48 h […] The tested concentration range for each compound was […] The required […] Greiner CELLSTAR® microplates) using the Echo 550 Acoustic Liquid Handler and wells were back-filled with DMSO when required to keep a final DMSO concentration […] Next, 50 μL of cell solution was added to the compound-containing wells using the Integra® […] Bulk dispenser. Cell solutions were prepared to get 5000 […] cells per well for hTERT RPE-1, and 5000 (24 h)/2500 (48 h) cells per well for BEAS- […] After incubation, cells were fixed with 4% PFA (Merck, […]), permeabilized with […] DAPI (Merck, 10236276001). Viable cells were counted using 377 nm excitation and 447 nm emission filters on the CeligoTM Image Cytometer. The number of nuclei per well was determined using the Direct Cell Count analysis from the CeligoPro Sofware […] All conditions were performed in triplicate. Staurosporine (Cambridge Bioscience, s7600) was used as a positive control and DMSO only as a negative control. The percentage of cell viability was normalized to the DMSO-only control and […] logistic curve with the scipy.optimize.curve_fit function. S43

[9] = tested on: HCT116 (colorectal cancer) cells; assay: Cell viability (DAPI nuclei count); format: cell-based, human; conditions: 48 h
Description: as §13

[10] = tested on: HaCat (non-cancer skin) cells; assay: Cell viability (DAPI nuclei count); format: cell-based, human; conditions: 48 h
Description: as §13

[11] = tested on: HeLa (cervical cancer) cells; assay: Cell viability (DAPI nuclei count); format: cell-based, human; conditions: 48 h
Description: as §13

[12] = tested on: RPE1 (retinal pigment epithelial cells); assay: Cell viability (DAPI nuclei count); format: cell-based, human; conditions: 48 h
Description: as §13

[13] = tested on: BEASB2, HaCat, RPE1, HCT116 and HeLa cell lines; assay: Cell viability, summary over all cell lines studied; format: cell-based, human; conditions: summary of Table 3, 48 h; for IC50: read-out: IC50 values, range over all cell lines studied
Description: as §13

[14] = target: T1, avidin (Gallus gallus, UniProt P02701); assay: HABA/avidin assay; format: binding; conditions: titration of HABA/avidin mixture, absorbance at 500 nm
T1 construct: purchased SIGMA-ALDRICH A9275
T1 sequence (P02701 25-152): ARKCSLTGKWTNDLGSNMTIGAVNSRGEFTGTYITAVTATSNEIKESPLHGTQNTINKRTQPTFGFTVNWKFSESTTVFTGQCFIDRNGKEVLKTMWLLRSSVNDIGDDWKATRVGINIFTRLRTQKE
Description: properties towards avidin using the HABA assay.[8] A mixture of avidin (6.8 μM, SIGMA-ALDRICH: A9275) and 4'-hydroxyazobenzene-2-carboxylic acid (HABA, 0.3 mM, SIGMA-ALDRICH: H5126) was dissolved in 50 mM sodium phosphate buffer (20 mL, pH 7.4) and allowed to equilibrate for 24 h at 4 °C. Stock solutions of each compound were prepared in dimethyl sulfoxide at a concentration of 1.1 mM. The […]
to the prepared avidin/HABA mixture (1 mL) at room temperature at 5–10 min intervals […]
absorbance then recorded with an Agilent 8453 UV/Vis spectrometer. The formation of the adduct was indicated by a decrease in the absorbance at 500 nm due to the displacement of HABA from the avidin. By plotting -ΔA500 nm vs. the molar concentration ratio c(compound):c(avidin), the binding stoichiometry of the compound to avidin was determined.

Compound | MIC [4] [µM] | MIC [1] [µM] | MIC [5] [µM] | MIC [6] [µM] | MIC E. faecium (Gram positive) [7] [µM] | MIC ([2]; three colonies) [µM] | IC50 [8] [µM] | IC50 [9] [µM] | IC50 [10] [µM] | IC50 [11] [µM] | IC50 [12] [µM] | IC50 [13] [µM] | LogP ([3]; pH 7.4) | avidin binding in HABA assay (result in words) [14] | other results
CC1(C)S[C@@H]2[C@H](NC(=O)C(C(=O)O)c3ccccc3)C(=O)N2[C@H]1C(=O)O (stereo partly drawn) [Carbenicillin, reference compound] |  |  |  |  |  |  |  |  |  |  |  |  |  |  | MIC ([1]; Escherichia coli, ATCC10798): 12.5 µM (≈ 4.73 µg/mL); MIC ([2]; Staphylococcus aureus, NTCC12973, three colonies): 12.5 µM (≈ 4.73 µg/mL)
O=C1N[C@H]2[C@H](CS[C@H]2CCCCC(=O)c2n[n]([Pt][c]3c(-c4ccccn4)cccc3-c3ccccn3)nc2-c2ccccc2)N1 [Compound 14, [Pt(triazolatoC6H5,biotin)(dpb)]] | >200 | >200 | >200 | >200 | 5 to 10 | 12.5 | 6.7 | 9.4 | 10.2 | 8.2 | 7.4 |  |  |  | LogP ([3]; shake-flask method, n-octanol/phosphate buffer 50 mM pH 7.4): highly lipophilic^a
O=C(O)c1cn(C2CC2)c2cc(N3CCNCC3)c(F)cc2c1=O [Ciprofloxacin, reference compound] |  |  |  |  |  |  |  |  |  |  |  |  |  |  | MIC ([4]; Acinetobacter baumannii, ATCC17978): 0.31 µM (≈ 0.103 µg/mL); MIC ([5]; Klebsiella pneumoniae, ATCC13883): < 0.16 µM; MIC ([6]; Pseudomonas aeruginosa, ATCCBAA47): 100 µM (≈ 33.1 µg/mL)
[Au(triazolatoC6H5,biotin)(PPh3)] [Compound 12] | 50 | >200 | >200 | >200 | 0.625 to 2.5 | 1.25 | 2.7 | 7.2 | 6.6 | 3.8 | 3.6 | 2 to 8 |  |  | 
CC(=O)c1n[n]([Au][PH](c2ccccc2)(c2ccccc2)c2ccccc2)nc1-c1ccccc1 [Compound 11, [Au(triazolatoC6H5,COCH3)(PPh3)]] | 100 | >200 | >200 | >200 | 0.625 to 5 | 2.5 | 2.5 | 5.5 | 6.1 | 3.5 | 2.7 | 2 to 8 | highly lipophilic^a | non-specific protein binding | 
COC(=O)c1n[n]([Ir+][c]2ccccc2-c2ccccn2)nc1C(=O)OC.F[P-](F)(F)(F)(F)F.c1ccc(-c2cccc(-c3ccccn3)n2)nc1 [Compound 17] | >200 | >200 | >200 | >200 |  | >200 |  | > 50 | > 50 | > 50 | 35 | > 35 | -1.02 | non-specific protein binding | MIC [7]: >200 µM
COC(=O)c1n[n]([Pt][c]2c(-c3ccccn3)cccc2-c2ccccn2)nc1C(=O)OC [Compound 13] | >200 | >200 | >200 | >200 |  | 200 |  | > 50 | > 50 | > 50 | > 50 |  | highly lipophilic^a | non-specific protein binding | MIC [7]: >200 µM; IC50 values, range over all cell lines studied [13]: did not show any biological activity
